Results from patent US7235574B2, “Pentafluorosulfanyl compounds” (Hoffmann-La Roche Inc., priority 2004, dated 2007).

Legend:
[1] = target: T1, HER2 (Homo sapiens, UniProt P04626); assay: Inhibition of HER2 Phosphorylation in Calu3 Tumor Cell Line; format: cell-based; conditions: Calu3 cells; for percentage of inhibition of HER2 phosphorylation compared with the reference compound: comparison with reference compound (Example 4, p. 88, WO 01/77107); for inhibition at 1 µM: Calu-3, read-out: Percent inhibition of HER2-phosphorylation
T1 construct: endogenous in cells; host or cells: Calu3 tumor cell line
Experimental: Inhibition of HER2 Phosphorylation in Calu3 Tumor Cell Line
2×10^5 Calu3 cells per well were plated in a 12-well plate. After 4 days cells were starved for 16 h in DMEM (Dulbecco's Modified Eagle Medium)/0.5% FCS/1% glutamine. During this time cells were incubated with […] of a compound according to this invention. Afterwards cells were lysed in lyses buffer containing 1% Triton, 10% glycerol, 1 mM EGTA, 1.5 mM MgCl2, 150 mM NaCl, 50 mM Hepes pH 7.5, 1 mM PMSF, 10 μg/mL aprotinin and […] orthovanadate. Cell lysates were analyzed on a SDS PAGE and after transfer to a nitrocellulose membrane detected with a rabbit antibody specifically recognizing the pY 1248 in HER2 (Cell Signaling). After incubation with an anti rabbit antibody coupled to POD (Peroxidase from Biorad, Munich, Germany) signals were detected by chemiluminescence (ECL, Amersham). Inhibition of HER2 phosphorylation is calculated as percentage of the DMSO treated control. This percentage is calculated according to the following formula: Inhibition in %=100−(Phosphorylated-HER2-Signal of Test Sample*100/Phosphorylated-HER2-Signal DMSO-control).

[2] = compound concentration 1 μM, 16 h incubation, pY 1248 in HER2, percentage of the DMSO treated control

T1 sequence (P04626 23-1255): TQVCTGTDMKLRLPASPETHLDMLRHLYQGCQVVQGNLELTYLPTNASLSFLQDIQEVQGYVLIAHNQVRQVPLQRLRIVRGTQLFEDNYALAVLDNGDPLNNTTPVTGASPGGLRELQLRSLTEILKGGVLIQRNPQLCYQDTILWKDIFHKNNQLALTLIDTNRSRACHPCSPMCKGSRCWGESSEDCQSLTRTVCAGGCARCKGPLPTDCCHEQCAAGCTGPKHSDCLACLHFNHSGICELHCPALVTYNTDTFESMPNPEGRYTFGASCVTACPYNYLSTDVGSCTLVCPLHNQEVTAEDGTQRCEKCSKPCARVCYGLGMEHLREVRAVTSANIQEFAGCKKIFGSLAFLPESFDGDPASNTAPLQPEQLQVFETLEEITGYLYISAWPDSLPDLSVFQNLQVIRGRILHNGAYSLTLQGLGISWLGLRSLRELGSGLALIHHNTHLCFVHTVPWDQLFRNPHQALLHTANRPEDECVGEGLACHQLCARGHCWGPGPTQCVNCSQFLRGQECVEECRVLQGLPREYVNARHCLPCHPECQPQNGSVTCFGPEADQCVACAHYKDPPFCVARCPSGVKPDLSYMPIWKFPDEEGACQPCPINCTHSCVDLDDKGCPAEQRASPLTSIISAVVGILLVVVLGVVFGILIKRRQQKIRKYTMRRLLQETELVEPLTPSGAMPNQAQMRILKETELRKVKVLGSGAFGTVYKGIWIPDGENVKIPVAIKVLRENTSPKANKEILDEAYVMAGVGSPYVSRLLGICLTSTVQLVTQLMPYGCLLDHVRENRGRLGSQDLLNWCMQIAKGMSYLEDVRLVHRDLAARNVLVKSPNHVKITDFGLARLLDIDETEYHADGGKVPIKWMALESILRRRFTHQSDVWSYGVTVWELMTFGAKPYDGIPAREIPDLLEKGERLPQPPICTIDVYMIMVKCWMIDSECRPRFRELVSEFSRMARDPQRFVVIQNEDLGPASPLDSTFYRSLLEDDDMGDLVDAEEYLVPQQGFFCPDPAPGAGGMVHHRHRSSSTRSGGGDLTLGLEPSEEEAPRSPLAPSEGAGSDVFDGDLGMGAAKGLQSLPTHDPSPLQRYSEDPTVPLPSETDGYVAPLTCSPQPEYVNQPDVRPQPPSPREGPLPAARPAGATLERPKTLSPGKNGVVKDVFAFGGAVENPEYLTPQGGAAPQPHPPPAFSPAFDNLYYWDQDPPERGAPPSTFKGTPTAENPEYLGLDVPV

Question: For FS(F)(F)(F)(F)c1ccc(C=Cc2nc(COc3ccc(CCCCn4ccnc4)cc3)co2)cc1 [example 1, 4-[4-(4-Imidazol-1-yl-butyl)-phenoxymethyl]-2-[2-(4-pentafluorosulfanyl-phenyl)-vinyl]-oxazole], which “percentage of inhibition of HER2 phosphorylation compared with the reference compound” value [1] is on record?
Answer: The value was “higher percentage of inhibition of phosphorylation”.

Question: And the inhibition at 1 µM [1, 2]?
Answer: The inhibition at 1 µM was 87.5%.

Question: For FS(F)(F)(F)(F)c1ccc(/C=C/c2nc(COc3ccc(CCCCn4ccnn4)cc3)co2)cc1 [example 4, 1-[4-(4-{2-[(E)-2-(-4-Pentafluorosulfanyl-phenyl)-vinyl]-oxazol-4-ylmethoxy}-phenyl)-butyl]-1H-[1,2,3]triazole], which “percentage of inhibition of HER2 phosphorylation compared with the reference compound” value [1] is on record?
Answer: The value was “higher percentage of inhibition of phosphorylation”.

Question: What about the inhibition at 1 µM [1, 2] of the same molecule?
Answer: Its inhibition at 1 µM is 86.1%.

Question: Which “Percent inhibition of HER2-phosphorylation” value [1, 2] does the source give for FS(F)(F)(F)(F)c1ccc(C=Cc2nc(COc3ccc(COCCn4ccnn4)cc3)co2)cc1 [example 9, 1-[2-(4-{2-[-4-(Pentafluorosulfanyl-phenyl)-vinyl]-oxazol-4-ylmethoxy}-benzyloxy)-ethyl]-1H-[1,2,3]-triazole] here?
Answer: Its value is 52.9%.

Question: What about the “percentage of inhibition of HER2 phosphorylation compared with the reference compound” value [1] of the same molecule?
Answer: The value was “higher percentage of inhibition of phosphorylation”.

Question: Which “percentage of inhibition of HER2 phosphorylation compared with the reference compound” value [1] does the source give for O=S(=O)(CCn1ccnn1)Cc1ccc(OCc2coc(/C=C/c3ccc(S(F)(F)(F)(F)F)cc3)n2)cc1 [example 11, 1-[2-(4-{2-[(E)-2-(4-Pentafluorosulfanyl-phenyl)-vinyl]-oxazol-4-ylmethoxy}-phenylmethanesulfonyl)-ethyl]-1H-[1,2,3]triazole] here?
Answer: Its value is “higher percentage of inhibition of phosphorylation”.

Question: And the inhibition at 1 µM [1, 2]?
Answer: Its inhibition at 1 µM is 59.7%.

Question: Which results are given for FS(F)(F)(F)(F)c1ccc(C=Cc2nc(COc3ccc(C=CCCn4ccnn4)cc3)co2)cc1 [example 12, 1-[4-(4-{2-[2-(4-Pentafluorosulfanyl-phenyl)-vinyl]-oxazol-4-ylmethoxy}-phenyl)-but-3-enyl]-1H-[1,2,3]triazole]?
Answer: percentage of inhibition of HER2 phosphorylation compared with the reference compound [1]: higher percentage of inhibition of phosphorylation; inhibition at 1 µM [1, 2]: 68.8%

Question: For O=S(=O)(NCCn1ccnn1)c1ccc(OCc2coc(C=Cc3ccc(S(F)(F)(F)(F)F)cc3)n2)cc1 [example 14, N-(2-[1,2,3]Triazol-1-yl-ethyl)-4-{2-[2-(4-pentafluorosulfanyl-phenyl)-vinyl]-oxazol-4-ylmethoxy}-benzenesulfonamide], which “percentage of inhibition of HER2 phosphorylation compared with the reference compound” value [1] is on record?
Answer: The value was “higher percentage of inhibition of phosphorylation”.

Question: And the inhibition at 1 µM [1, 2]?
Answer: The inhibition at 1 µM was 71.7%.

Question: What about the melting point of the same molecule?
Answer: The melting point was 170 to 172 °C.

Question: With FS(F)(F)(F)(F)c1ccc(C=Cc2nc(COc3ccc(OCCCn4ccnn4)cc3)co2)cc1 [example 15, 1-[3-(4-{2-[2-(4-Pentafluorosulfanyl-phenyl)-vinyl]-oxazol-4-ylmethoxy}-phenoxy)-propyl]-1H-[1,2,3]triazole] as the molecule, how does the “percentage of inhibition of HER2 phosphorylation compared with the reference compound” value [1] read?
Answer: Its value is “higher percentage of inhibition of phosphorylation”.

Question: And the inhibition at 1 µM [1, 2]?
Answer: The inhibition at 1 µM was 97.5%.

Question: What does the source list for FS(F)(F)(F)(F)c1ccc(C=Cc2nc(CNc3ccc(CCCCn4ccnn4)cc3)co2)cc1 [example 16, [4-(4-[1,2,3]Triazol-1-yl-butyl)-phenyl]-{2-[2-(4-pentafluorosulfanyl-phenyl)-vinyl]-oxazol-4-ylmethyl}-amine]?
Answer: percentage of inhibition of HER2 phosphorylation compared with the reference compound [1]: higher percentage of inhibition of phosphorylation; inhibition at 1 µM [1, 2]: 91.9%
